What follows are compounds tested against T1, PARP-1 (Homo sapiens, UniProt P09874) (assay: PARP-1 enzyme inhibition assay (BPS Bioscience PARP Colorimetric Assay Kit)). Details: compound concentration 50 nM; three independent tests.
T1 construct: purchased BPS Bioscience 80580
Format: biochemical
Protocol: All target compounds were evaluated for PARP-1 enzyme inhibition activity at the concentration of 50 nM determined by previous pre-experiments.
The ability of the compounds to inhibit PARP-1 enzyme activity was assessed using BPS Bioscience's PARP Colorimetric Assay Kit (BPS Bioscience, Catalog # 80580). PARP-1 is known to catalyse the NAD-dependent addition of poly(ADP-ribose) to histones. The PARP-1 assay kit comes in a convenient 96-well format, with purified PARP-1 enzyme, histone mixture, activated DNA, and PARP-1 assay buffer. The key to the PARP-1 Colorimetric Activity Assay is the biotinylated substrate. With this kit, only three simple steps are required for PARP-1 reactions. First, histone proteins are coated on a 96-well plate. Next, the PARP-1 biotinylated substrate is incubated with an assay buffer that contains the PARP-1 enzyme. Finally, the plate is treated with streptavidin-HRP followed by the addition of the colorimetric HRP substrate to produce colour that can then be measured using a UV/Vis spectrophotometer microplate reader. IC50 values were calculated using GraphPad Prism5 software.

T1 sequence (P09874 whole entry): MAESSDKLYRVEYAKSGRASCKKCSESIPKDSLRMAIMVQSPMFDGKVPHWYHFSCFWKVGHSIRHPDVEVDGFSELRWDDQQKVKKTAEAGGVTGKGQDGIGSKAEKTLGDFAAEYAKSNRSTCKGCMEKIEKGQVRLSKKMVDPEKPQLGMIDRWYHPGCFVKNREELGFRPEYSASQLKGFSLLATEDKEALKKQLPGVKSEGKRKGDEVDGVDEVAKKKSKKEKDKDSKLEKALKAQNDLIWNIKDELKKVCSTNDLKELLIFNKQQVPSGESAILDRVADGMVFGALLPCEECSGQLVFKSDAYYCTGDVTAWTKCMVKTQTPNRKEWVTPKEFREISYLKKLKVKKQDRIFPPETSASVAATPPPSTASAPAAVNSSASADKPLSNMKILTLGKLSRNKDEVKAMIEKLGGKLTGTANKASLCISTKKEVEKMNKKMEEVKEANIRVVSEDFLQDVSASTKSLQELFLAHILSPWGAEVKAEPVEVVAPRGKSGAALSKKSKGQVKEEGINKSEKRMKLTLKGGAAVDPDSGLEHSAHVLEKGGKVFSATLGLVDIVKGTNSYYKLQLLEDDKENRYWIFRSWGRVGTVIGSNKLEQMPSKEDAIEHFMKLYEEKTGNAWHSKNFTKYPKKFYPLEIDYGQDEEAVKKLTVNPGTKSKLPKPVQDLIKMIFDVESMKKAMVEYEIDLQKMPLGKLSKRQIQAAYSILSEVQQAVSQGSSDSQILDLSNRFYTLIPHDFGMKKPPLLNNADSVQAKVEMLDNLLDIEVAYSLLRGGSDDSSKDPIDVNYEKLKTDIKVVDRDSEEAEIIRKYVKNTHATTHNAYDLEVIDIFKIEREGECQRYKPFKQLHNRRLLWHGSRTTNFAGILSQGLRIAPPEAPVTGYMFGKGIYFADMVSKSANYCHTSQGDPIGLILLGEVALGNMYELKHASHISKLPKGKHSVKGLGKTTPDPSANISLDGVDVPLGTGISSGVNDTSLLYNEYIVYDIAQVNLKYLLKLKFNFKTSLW

inhibition at 0.05 µM [%] | SMILES
38.5 ± 4.5 | COc1cccc(-c2ccc(C3CNC(=O)c4ccccc4N3)cc2)c1 (stereo not shown) [Compound H49, 2-(3′-Methoxy-[1,1′-biphenyl]-4-yl)-1,2,3,4-tetrahydro-5H-benzo[e][1,4]diazepin-5-one]
45.1 ± 5.2 | O=C1NCC(c2ccc(-c3ccc(C(F)(F)F)cc3)cc2)=Nc2ccccc21 [Compound H44, 2-(4′-(Trifluoromethyl)-[1,1′-biphenyl]-4-yl)-3,4-dihydro-5H-benzo[e][1,4]diazepin-5-one]
35.4 ± 2.4 | COc1ncc(-c2ccc(C3=Nc4ccccc4C(=O)NC3)cc2)cc1N [Compound H40, 2-(4-(5-Amino-6-methoxypyridin-3-yl)phenyl)-3,4-dihydro-5H-benzo[e][1,4]diazepin-5-one]
39.3 ± 5.2 | C[C@@H]1CN(c2ccc(C3CNC(=O)c4ccccc4N3)cc2)C[C@H](C)O1 (stereo partly drawn) [Compound H55, 2-(4-((2S,6R)-2,6-dimethylmorpholino)phenyl)-1,2,3,4-tetrahydro-5H-benzo[e][1,4]diazepin-5-one]
48.8 ± 3.7 | O=C1NCC(c2ccc(-c3cccc(C(F)(F)F)c3)cc2)Nc2ccccc21 (stereo not shown) [Compound H51, 2-(3′-(Trifluoromethyl)-[1,1′-biphenyl]-4-yl)-1,2,3,4-tetrahydro-5H-benzo[e][1,4]diazepin-5-one]
46.1 ± 3.9 | Nc1ccc(-c2ccc(C3=Nc4ccccc4C(=O)NC3)cc2)cc1 [Compound H37, 2-(4′-Amino-[1,1′-biphenyl]-4-yl)-3,4-dihydro-5H-benzo[e][1,4]diazepin-5-one]
32.1 ± 1.6 | O=C1NCC(c2cccc(F)c2)Nc2ccccc21 (stereo not shown) [Compound H23, 2-(3-Fluorophenyl)-1,2,3,4-tetrahydro-5H-benzo[e][1,4]diazepin-5-one]
27.3 ± 2.3 | COc1cccc(C2CNC(=O)c3ccccc3N2)c1 (stereo not shown) [Compound H21, 2-(3-Methoxyphenyl)-1,2,3,4-tetrahydro-5H-benzo[e][1,4]diazepin-5-one]
34.6 ± 6.8 | CC(=O)N1CCN(c2ccc(C3CNC(=O)c4ccccc4N3)cc2)CC1 (stereo not shown) [Compound H54, 2-(4-(4-Acetylpiperazin-1-yl)phenyl)-1,2,3,4-tetrahydro-5H-benzo[e][1,4]diazepin-5-one]
24 ± 5.7 | CN1CC(c2ccc(Br)cc2)Nc2ccccc2C1=O (stereo not shown) [Compound H28, 2-(4-Bromophenyl)-4-methyl-1,2,3,4-tetrahydro-5H-benzo[e][1,4]diazepin-5-one]

The next lines start with the compound.

SMILES | inhibition at 0.05 µM [%]
O=C1CCNc2ccccc2N1 [Compound H3] | 3.6 ± 2.5
COc1cccc(C2=Nc3ccccc3C(=O)NC2)c1 [Compound H7, 2-(3-Methoxyphenyl)-3,4-dihydro-5H-benzo[e][1,4]diazepin-5-one] | 34.7 ± 2.9
N#Cc1ccc(C2=Nc3ccccc3C(=O)NC2)cc1 [Compound H12, 4-(5-Oxo-4,5-dihydro-3H-benzo[e][1,4]diazepin-2-yl)benzonitrile] | 15.7 ± 4.1
O=C1NCC(c2cccc(Cl)c2)=Nc2ccccc21 [Compound H11, 2-(3-Chlorophenyl)-3,4-dihydro-5H-benzo[e][1,4]diazepin-5-one] | 28.7 ± 2.6
CN1CC=C(c2ccc(C3=Nc4ccccc4C(=O)NC3)cc2)CC1 [Compound H45, 2-(4-(1-Methyl-1,2,3,6-tetrahydropyridin-4-yl)phenyl)-3,4-dihydro-5H-benzo[e][1,4]diazepin-5-one] | 42.5 ± 6
O=C1NCC(c2ccc(O)cc2)=Nc2ccccc21 [Compound H13, 2-(4-Hydroxyphenyl)-3,4-dihydro-5H-benzo[e][1,4]diazepin-5-one] | 37.9 ± 2.3
O=C1NCCNc2ccccc21 [Compound H1] | 6.2 ± 5.2
O=C1NCC(c2ccccc2)=Nc2ccccc21 [Compound H4, 2-Phenyl-3,4-dihydro-5H-benzo[e][1,4]diazepin-5-one] | 28.8 ± 3.4
COc1ccc(C2=Nc3ccccc3C(=O)NC2)cc1OC [Compound H16, 2-(3,4-Dimethoxyphenyl)-3,4-dihydro-5H-benzo[e][1,4]diazepin-5-one] | 24.4 ± 3.2
